Where two headings read alike, the source gives them in different places.
Tests used:
[1] = biological target: T1, HCV NS3/4A protease complex, BMS strain (UniProt P27958, C1454S/C1711G, species not given); assay: FRET peptide assay to monitor HCV NS3/4A proteolytic activity (BMS strain); type: biochemical, HCV genotype 1a; conditions: read-out: IC50 Range, HCV NS3/4A enzyme assay
T1 construct: other: HCV NS3/4A enzyme assay; class symbols; numeric values; fused on or other part: three-lysine solubilising tail at the C-terminus of NS4A; purified on Ni-NTA from the pET21b vector (His tag implied)
Description: HCV NS3 protease complexes, derived from the BMS strain, H77 strain or J4L6S strain, were generated, as described below. These purified recombinant proteins were generated for use in a homogeneous assay (see below) to provide an indication of how effective compounds of the present disclosure would be in inhibiting HCV NS3 proteolytic activity.
Serum from an HCV-infected patient was obtained from Dr. T. Wright, San Francisco Hospital. An engineered full-length cDNA (compliment deoxyribonucleic acid) template of the HCV genome (BMS strain) was constructed from DNA fragments obtained by reverse transcription-PCR (RT-PCR) of serum RNA (ribonucleic acid) and using primers selected on the basis of homology between other genotype 1a strains. From the determination of the entire genome sequence, a genotype 1a was assigned to the HCV isolate according to the classification of Simmonds et al. (See P Simmonds, K A Rose, S Graham, S W Chan, F McOmish, B C Dow, E A Follett, P L Yap and H Marsden, J. Clin. Microbiol., 31(6), 1493-1503 (1993)). […] The infectious clones, H77 (1a genotype) and J4L6S (1b genotype) were obtained from R. Purcell (NIH) and the sequences are published in Genbank (AAB67036, see Yanagi, M., Purcell, R. H., Emerson, S. U. and Buldi, J. Proc. Natl. Acad. Sci. U.S.A. 94(16),8738-8743 (1997); AF054247, see Yanagi, M., St Claire, M., Shapiro, M., Emerson, S. U., Purcell, R. H. and Bukh, J, Virology 244 (1), 161-172. (1998)).
NS3/4A protease complex-containing fractions were pooled and loaded on a desalting column Superdex-S200 pre-equilibrated with buffer D (25 mM HEPES, pH 7.5, 20% glycerol, 300 mM NaCl, 0.2% TritonX-100, 10 mM βMB). Sample was loaded at a flow rate of 1 mL/min. NS3/4A protease complex-containing fractions were pooled and concentrated to approximately 0.5 mg/ml. The purity of the NS3/4A protease complexes, derived from the BMS, H77 and J4L6S strains, were judged to be greater than 90% by SDS-PAGE and mass spectrometry analyses. The enzyme was stored at −80° C., thawed on ice and diluted prior to use in assay buffer.
The purpose of this in vitro assay was to measure the inhibition of HCV NS3 protease complexes, derived from the BMS strain, H77 strain or J4L6S strain, as described above, by compounds of the present disclosure. This assay provides an indication of how effective compounds of the present disclosure would be in inhibiting HCV NS3 proteolytic activity.
In order to monitor HCV NS3/4A protease activity, an NS3/4A peptide substrate was used. The substrate was RET S1 (Resonance Energy Transfer Depsipeptide Substrate; AnaSpec, Inc. cat #22991)(FRET peptide), described by Taliani et al. in Anal. Biochem. 240(2):60-67 (1996). The sequence of this peptide is loosely based on the NS4A/NS4B natural cleavage site for the HCV NS3 protease except there is an ester linkage rather than an amide bond at the cleavage site. The peptide also contains a fluorescence donor, EDANS, near one end of the peptide and an acceptor, DABCYL, near the other end. The fluorescence of the peptide is quenched by […] resonance energy transfer (RET) between the donor and the acceptor, but as the NS3 protease cleaves the peptide the products are released from RET quenching and the fluorescence of the donor becomes apparent.
The peptide substrate was incubated with one of the three recombinant NS3/4A protease complexes, in the absence or presence of a compound of the present disclosure. The inhibitory effects of a compound were determined by monitoring the formation of fluorescent reaction product in real time using a Cytofluor Series 4000.
Assay buffer: 50 mM HEPES, pH 7.5; 0.15 M NaCl; 0.1% Triton; 15% Glycerol; 10 mM βME. Substrate: 2 μM final concentration (from a 2 mM stock solution in DMSO stored at −20° C.). HCV NS3/4A protease type 1a (1b), 2-3 nM final concentration (from a 5 μM stock solution in 25 mM HEPES, pH 7.5, 20% glycerol, 300 mM NaCl, 0.2% Triton-X100, 10 mM βME). […]

[2] = system: HCV replicon in HUH-7 cells; assay: HCV replicon FRET assay; type: cell-based, HCV strain 1b; conditions: Hepatitis C virus
Description: An HCV replicon whole cell system was established as described by Lohmann V, Korner F, Koch J, Herian U, Theilmann L, Bartenschlager R., Science 285(5424):110-3 (1999). This system enabled us to evaluate the effects of our HCV Protease compounds on HCV RNA replication. Briefly, using the HCV strain 1b sequence described in the Lohmann paper (Assession number:AJ238799), an HCV cDNA was synthesized by Operon Technologies, Inc. (Alameda, Calif.), and the full-length replicon was then assembled in plasmid pGem9zf(+) (Promega, Madison, Wis.) using standard molecular biology techniques. The replicon consists of (i) the HCV 5′ UTR fused to the first 12 amino acids of the capsid protein, (ii) the neomycin phosphotransferase gene (neo), (iii) the IRES from encephalomyocarditis virus (EMCV), and (iv) HCV NS3 to NS5B genes and the HCV 3′ UTR. Plasmid DNAs were linearized with ScaI and RNA transcripts were synthesized in vitro using the T7 MegaScript transcription kit (Ambion, Austin, Tex.) according to manufacturer's directions. In vitro transcripts of the eDNA were transfected into the human hepatoma cell line, HUH-7. […] Resulting cell lines were characterized for positive and negative strand RNA production and protein production over time.
The HCV replicon FRET assay was developed to monitor the inhibitory effects of compounds described in the disclosure on HCV viral replication. HUH-7 cells, constitutively expressing the HCV replicon, were grown in Dulbecco's Modified Eagle Media (DMEM) (Gibco-BRL) containing 10% Fetal calf serum (FCS) (Sigma) and 1 mg/ml G418 (Gibco-BRL). Cells were seeded the night before (1.5×10^4 cells/well) in 96-well tissue-culture sterile plates. Compound and no compound controls were prepared in DMEM containing 4% FCS, 1:100 Penicillin/Streptomysin (Gibco-BRL), 1:100 L-glutamine and 5% DMSO in the dilution plate (0.5% DMSO final concentration in the assay). Compound/DMSO mixes were added to the cells and incubated for 4 days at 37° C. After 4 days, cells were first assessed for cytotoxicity using alamar Blue (Trek Diagnotstic Systems) for a CC50 reading. The toxicity of compound (CC50) was determined by adding 1/10th volume of alamar Blue to the media incubating the cells. After 4 h, the fluorescence signal from each well was read, with an excitation wavelength at 530 nm and an emission wavelength of 580 nm, using the Cytofluor Series 4000 (Perspective Biosystems). Plates were then rinsed thoroughly with Phosphate-Buffered Saline (PBS) (3 times 150 μl).

[3] = Huh-7, HCV replicon cell assay, numeric values, read-out: EC50 Range

`C=C[C@@H]1C[C@]1(NC(=O)[C@@H]1C[C@@H](Oc2ncc(OC)c3ccc(Cl)cc23)CN1C(=O)[C@@H](Nc1nc(-c2ccccc2O)cs1)C(C)(C)C)C(=O)NS(=O)(=O)C1CC1` [Example 50] showed an IC50 ([1]; numeric values) of 39 nM and an EC50 [2, 3] of 18.9 nM.
Work on `C=C[C@@H]1C[C@]1(NC(=O)[C@@H]1C[C@@H](Oc2ncc(OC)c3ccc(Cl)cc23)CN1C(=O)[C@@H](Nc1nc(-c2cc(F)ccc2OC)cs1)C(C)(C)C)C(=O)NS(=O)(=O)C1CC1` [Example 56] yielded an IC50 ([1]; class symbols) of 1 to 20 nM and an EC50 ([2]; Huh-7, read-out: EC50 Range) of 1 to 50 nM.
Molecule `C=C[C@@H]1C[C@]1(NC(=O)[C@@H]1C[C@@H](Oc2ncc(OC)c3ccc(Cl)cc23)CN1C(=O)[C@@H](Nc1nc(-c2ccc(OC(F)(F)F)cc2)cs1)C(C)(C)C)C(=O)NS(=O)(=O)C1CC1` [Example 17] has an IC50 ([1]; numeric values) of 11 nM and an EC50 [2, 3] of 8.95 nM.
`C=C[C@@H]1C[C@]1(NC(=O)[C@@H]1C[C@@H](Oc2ncc(OC)c3ccc(Cl)cc23)CN1C(=O)[C@@H](Nc1nc(-c2ccc(-c3ccccc3)cc2)cs1)C(C)(C)C)C(=O)NS(=O)(=O)C1CC1` [Example 24] was tested, and the IC50 ([1]; class symbols) was 20 to 200 nM and the EC50 ([2]; Huh-7, read-out: EC50 Range) was 1 to 50 nM.
Work on `C=C[C@@H]1C[C@]1(NC(=O)[C@@H]1C[C@@H](Oc2ncc(OC)c3ccc(Cl)cc23)CN1C(=O)[C@@H](Nc1nc(-c2ccccc2Cl)cs1)C(C)(C)C)C(=O)NS(=O)(=O)C1CC1` [Example 49] yielded an IC50 ([1]; class symbols) of 1 to 20 nM and an EC50 ([2]; Huh-7, read-out: EC50 Range) of 1 to 50 nM.
`C=C[C@@H]1C[C@]1(NC(=O)[C@@H]1C[C@@H](Oc2ncc(OC)c3ccc(Cl)cc23)CN1C(=O)[C@@H](Nc1nc(-c2ccccc2)c(C)s1)C(C)(C)C)C(=O)NS(=O)(=O)C1CC1` [Example 9, (2S,4R)-4-(7-chloro-4-methoxyisoquinolin-1-yloxy)-N-((1R,2S)-1-(cyclopropylsulfonylcarbamoyl)-2-vinylcyclopropyl)-1-((S)-3,3-dimethyl-2-(5-methyl-4-phenylthiazol-2-ylamino)butanoyl)pyrrolidine-2-carboxamide] showed an IC50 ([1]; class symbols) of 1 to 20 nM and an EC50 ([2]; Huh-7, read-out: EC50 Range) of 1 to 50 nM.
Molecule `C=C[C@@H]1C[C@]1(NC(=O)[C@@H]1C[C@@H](Oc2ncc(OC)c3ccc(Cl)cc23)CN1C(=O)[C@@H](Nc1nc(-c2ccncc2)cs1)C(C)(C)C)C(=O)NS(=O)(=O)C1CC1` [Example 16] has an IC50 ([1]; numeric values) of 1 nM and an EC50 [2, 3] of 6.57 nM.
In the case of `C=C[C@@H]1C[C@]1(NC(=O)[C@@H]1C[C@@H](Oc2ncc(OC)c3ccc(Cl)cc23)CN1C(=O)[C@@H](Nc1nc(-c2cccc(C#N)c2)cs1)C(C)(C)C)C(=O)NS(=O)(=O)C1CC1` [Example 25], the IC50 ([1]; class symbols) is reported as 1 to 20 nM and the EC50 ([2]; Huh-7, read-out: EC50 Range) is reported as 1 to 50 nM.
`C=C[C@@H]1C[C@]1(NC(=O)[C@@H]1C[C@@H](Oc2ncc(OC)c3ccc(Cl)cc23)CN1C(=O)[C@@H](Nc1nc(-c2ccc3c(c2)OCCO3)cs1)C(C)(C)C)C(=O)NS(=O)(=O)C1CC1` [Example 36] showed an IC50 ([1]; class symbols) of 1 to 20 nM and an EC50 ([2]; Huh-7, read-out: EC50 Range) of 1 to 50 nM.
For `C=C[C@@H]1C[C@]1(NC(=O)[C@@H]1C[C@@H](Oc2ncc(OC)c3ccc(Cl)cc23)CN1C(=O)[C@@H](Nc1nc(-c2cc(C)ccc2OC)cs1)C(C)(C)C)C(=O)NS(=O)(=O)C1CC1` [Example 54], the IC50 ([1]; class symbols) was 1 to 20 nM and the EC50 ([2]; Huh-7, read-out: EC50 Range) was 1 to 50 nM.
Work on `C=C[C@@H]1C[C@]1(NC(=O)[C@@H]1C[C@@H](Oc2ncc(OC)c3ccc(Cl)cc23)CN1C(=O)[C@@H](Nc1nc(-c2cccnc2)cs1)C(C)(C)C)C(=O)NS(=O)(=O)C1CC1` [Example 15] yielded an IC50 ([1]; class symbols) of 1 to 20 nM and an EC50 ([2]; Huh-7, read-out: EC50 Range) of 1 to 50 nM.
With `C=C[C@@H]1C[C@]1(NC(=O)[C@@H]1C[C@@H](Oc2ncc(OC)c3ccc(Cl)cc23)CN1C(=O)[C@@H](Nc1nc(-c2cc(Cl)cc(Cl)c2OC)cs1)C(C)(C)C)C(=O)NS(=O)(=O)C1CC1` [Example 55] the IC50 ([1]; class symbols) was 1 to 20 nM and the EC50 ([2]; Huh-7, read-out: EC50 Range) was 1 to 50 nM.
For `C=C[C@@H]1C[C@]1(NC(=O)[C@@H]1C[C@@H](Oc2ncc(OC)c3ccc(Cl)cc23)CN1C(=O)[C@@H](Nc1nc(-c2cc(Cl)c(C)cc2OC)cs1)C(C)(C)C)C(=O)NS(=O)(=O)C1CC1` [Example 59], the IC50 ([1]; class symbols) was 1 to 20 nM and the EC50 ([2]; Huh-7, read-out: EC50 Range) was 1 to 50 nM.
For `C=C[C@@H]1C[C@]1(NC(=O)[C@@H]1C[C@@H](Oc2ncc(OC)c3ccc(Cl)cc23)CN1C(=O)[C@@H](Nc1nc(-c2c(OC)cccc2OC)cs1)C(C)(C)C)C(=O)NS(=O)(=O)C1CC1` [Example 58], the IC50 ([1]; class symbols) was 1 to 20 nM and the EC50 ([2]; Huh-7, read-out: EC50 Range) was 1 to 50 nM.
Work on `C=C[C@@H]1C[C@]1(NC(=O)[C@@H]1C[C@@H](Oc2ncc(OC)c3ccc(Cl)cc23)CN1C(=O)[C@@H](Nc1nc(-c2ccc(Br)cc2)c(Br)s1)C(C)(C)C)C(=O)NS(=O)(=O)C1CC1` [Example 19] yielded an IC50 ([1]; class symbols) of 1 to 20 nM and an EC50 ([2]; Huh-7, read-out: EC50 Range) of 1 to 50 nM.
For `C=C[C@@H]1C[C@]1(NC(=O)[C@@H]1C[C@@H](Oc2cc(-c3ccccc3)nc3cc(OC)ccc23)CN1C(=O)[C@@H](Nc1nc(-c2ccc(OC)cc2)cs1)C(C)(C)C)C(=O)NS(=O)(=O)C1CC1` [Example 4], the IC50 ([1]; class symbols) was 1 to 20 nM and the EC50 ([2]; Huh-7, read-out: EC50 Range) was 1 to 50 nM.
Work on `C=C[C@@H]1C[C@]1(NC(=O)[C@@H]1C[C@@H](Oc2ncc(OC)c3ccc(Cl)cc23)CN1C(=O)[C@@H](Nc1nc(-c2ccc(OC)cc2)cs1)C(C)(C)C)C(=O)NS(=O)(=O)C1CC1` [Example 7] yielded an IC50 ([1]; class symbols) of 1 to 20 nM and an EC50 ([2]; Huh-7, read-out: EC50 Range) of 1 to 50 nM.
`C=C[C@@H]1C[C@]1(NC(=O)[C@@H]1C[C@@H](Oc2ncc(OC)c3ccc(Cl)cc23)CN1C(=O)[C@@H](Nc1nc(-c2ccc(C#N)cc2)cs1)C(C)(C)C)C(=O)NS(=O)(=O)C1CC1` [Example 21] was tested, and the IC50 ([1]; class symbols) was 1 to 20 nM and the EC50 ([2]; Huh-7, read-out: EC50 Range) was 1 to 50 nM.

Source: patent US8163921B2, “Hepatitis C virus inhibitors” (Bristol-Myers Squibb Company, priority 2008, dated 2012)
